Here are results for 25 compounds from patent US20240270740A1, “INHIBITORS OF CYCLIC GMP-AMP SYNTHASE AND USES THEREOF” (Ventus Therapeutics U.S., Inc., priority 2022, published 2024).

The structures appear in SMILES notation.

The target of the assay is hcGAS (Homo sapiens, UniProt Q8N884). The experiment in a line: hcGAS LCMS assay (direct measurement of cGAMP production). The format is biochemical. The following applies: 0.5 nM hcGAS, 100 μM ATP, 100 μM GTP, 25 nM dsDNA, 4 h incubation. Summed up: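 Direct LC/MS readout of cGAMP formed: 4-h enzyme–substrate incubation with compound, stopped by acetonitrile/water quench carrying isotope-labelled cGAMP (0.15 mM) as standard. Potency reported as IC50 ranges.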
Chain of hcGAS (Q8N884 whole entry): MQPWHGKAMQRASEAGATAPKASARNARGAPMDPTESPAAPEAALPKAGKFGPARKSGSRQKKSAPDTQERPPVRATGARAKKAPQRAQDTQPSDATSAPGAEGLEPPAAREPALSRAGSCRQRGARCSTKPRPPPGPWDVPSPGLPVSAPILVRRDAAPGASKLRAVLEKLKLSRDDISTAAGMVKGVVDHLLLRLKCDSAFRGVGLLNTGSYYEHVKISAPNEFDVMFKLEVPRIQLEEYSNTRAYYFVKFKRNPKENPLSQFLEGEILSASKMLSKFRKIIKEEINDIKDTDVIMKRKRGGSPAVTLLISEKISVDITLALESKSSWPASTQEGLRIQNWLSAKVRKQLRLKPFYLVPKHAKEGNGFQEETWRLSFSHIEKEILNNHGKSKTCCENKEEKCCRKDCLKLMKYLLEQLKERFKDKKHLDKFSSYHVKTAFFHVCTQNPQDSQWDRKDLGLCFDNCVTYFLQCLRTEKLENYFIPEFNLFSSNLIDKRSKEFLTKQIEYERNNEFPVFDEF
For orientation: IC50 means the concentration at which inhibition is half-maximal. Higher therefore signals weaker potency. `COC[C@H](Cc1ccccc1)Nc1cc(C(=O)Nc2nnc(-n3nccc3C)s2)oc(=O)c1OC` [Compound 165, (S)-3-methoxy-4-((1-methoxy-3-phenylpropan-2-yl)amino)-N-(5-(5-methyl-1H-pyrazol-1-yl)-1,3,4-thiadiazol-2-yl)-2-oxo-2H-pyran-6-carboxamide]: the IC50 lay within 60 to 200 nM.
To `COc1c(N[C@H]2CCCC[C@H]2OC)cc(C(=O)Nc2nnc(-n3nccc3C)s2)oc1=O` [Compound 27, 3-methoxy-4-(((1S,2R)-2-methoxycyclohexyl)amino)-N-(5-(5-methyl-1H-pyrazol-1-yl)-1,3,4-thiadiazol-2-yl)-2-oxo-2H-pyran-6-carboxamide] belongs 5 to 20 nM; to `COc1c(N[C@@H]2CCN(C)C2=O)cc(C(=O)Nc2nnc(-n3nccc3C)s2)oc1=O` (single isomer, unassigned) [72*], 5 to 20 nM.
`COc1c(N[C@@H]2CCCC[C@@H]2OC)cc(C(=O)Nc2nnc(-n3nccc3C)s2)oc1=O` [Compound 52, 3-methoxy-4-(((1R,2S)-2-methoxycyclohexyl)amino)-N-(5-(5-methyl-1H-pyrazol-1-yl)-1,3,4-thiadiazol-2-yl)-2-oxo-2H-pyran-6-carboxamide] displayed an IC50 of 5 to 20 nM.
To `CC[C@@H](COC)Nc1cc(C(=O)Nc2nnc(-n3nccc3C)s2)oc(=O)c1OC` (single isomer, unassigned) [192*] belongs 5 to 20 nM.
To `COCCOc1c(N[C@@H](COC)c2ccccc2)cc(C(=O)Nc2nnc(-n3nccc3C)s2)oc1=O` [Compound 200, (R)-4-((2-Methoxy-1-phenylethyl)amino)-3-(2-methoxyethoxy)-N-(5-(5-methyl-1H-pyrazol-1-yl)-1,3,4-thiadiazol-2-yl)-2-oxo-2H-pyran-6-carboxamide] belongs less than 5 nM; to `COCCNc1cc(C(=O)Nc2nnc(-c3sccc3C#N)s2)oc(=O)c1OC` [Compound 145, N-(5-(3-cyanothiophen-2-yl)-1,3,4-thiadiazol-2-yl)-3-methoxy-4-((2-methoxyethyl)amino)-2-oxo-2H-pyran-6-carboxamide], no less than 200 nM.
To `COc1c(N[C@H]2CCC[C@H]2O)cc(C(=O)Nc2nnc(-c3c(Cl)ccn3C)s2)oc1=O` [Compound 83, N-(5-(3-chloro-1-methyl-1H-pyrrol-2-yl)-1,3,4-thiadiazol-2-yl)-4-(((1S,2R)-2-hydroxycyclopentyl)amino)-3-methoxy-2-oxo-2H-pyran-6-carboxamide] belongs less than 5 nM; to `COc1c(N[C@@H]2CCC[C@H]2OC)cc(C(=O)Nc2nnc(-n3nccc3C)s2)oc1=O` (single isomer, unassigned) [3*], less than 5 nM; to `COCCNc1cc(C(=O)Nc2nnc(-c3c(Cl)nsc3Cl)s2)oc(=O)c1OC` [Compound 156, N-(5-(3,5-dichloroisothiazol-4-yl)-1,3,4-thiadiazol-2-yl)-3-methoxy-4-((2-methoxyethyl)amino)-2-oxo-2H-pyran-6-carboxamide], 60 to 200 nM.
Consider `Nc1ccnn1-c1nnc(NC(=O)c2cc(NC34CC(C3)C4)c(OCCO)c(=O)o2)s1` [Compound 177, N-(5-(5-amino-1H-pyrazol-1-yl)-1,3,4-thiadiazol-2-yl)-4-(bicyclo[1.1.1]pentan-1-ylamino)-3-(2-hydroxyethoxy)-2-oxo-2H-pyran-6-carboxamide], for which the IC50 is less than 5 nM.
The result for `COc1c(N[C@@H]2CC[C@@H]2OC)cc(C(=O)Nc2nnc(-n3nccc3C)s2)oc1=O` (single isomer, unassigned) [122*] reads 5 to 20 nM; that for `COc1c(N2CCCS2(=O)=O)cc(C(=O)Nc2nnc(-n3nccc3C)s2)oc1=O` [Compound 99, 4-(1,1-dioxidoisothiazolidin-2-yl)-3-methoxy-N-(5-(5-methyl-1H-pyrazol-1-yl)-1,3,4-thiadiazol-2-yl)-2-oxo-2H-pyran-6-carboxamide], 20 to 60 nM.
On to `COc1c(N[C@H]2CCC[C@H]2C#N)cc(C(=O)Nc2nnc(-n3nccc3C)s2)oc1=O` (single isomer, unassigned) [Compound 74], for which the IC50 was less than 5 nM.
The compound `COc1c(N[C@H]2CC[C@H]2OC)cc(C(=O)Nc2nnc(-n3nccc3C)s2)oc1=O` (single isomer, unassigned) [123*] registered an IC50 of 5 to 20 nM.
To `COC[C@@H]1CCC[C@@H]1Nc1cc(C(=O)Nc2nnc(-n3nccc3C)s2)oc(=O)c1OC` (single isomer, unassigned) [Compound 79*] belongs 60 to 200 nM; to `COCC1(Nc2cc(C(=O)Nc3nnc(-n4nccc4C)s3)oc(=O)c2OC)COC1` [Compound 98, 3-methoxy-4-((3-(methoxymethyl)oxetan-3-yl)amino)-N-(5-(5-methyl-1H-pyrazol-1-yl)-1,3,4-thiadiazol-2-yl)-2-oxo-2H-pyran-6-carboxamide], 5 to 20 nM.
To `COC[C@H]1CC[C@H](COC)N1c1cc(C(=O)Nc2nnc(-n3nccc3C)s2)oc(=O)c1OC` (racemic) [Rac-209, 4-((trans)-2,5-bis(methoxymethyl)pyrrolidin-1-yl)-3-methoxy-N-(5-(5-methyl-1H-pyrazol-1-yl)-1,3,4-thiadiazol-2-yl)-2-oxo-2H-pyran-6-carboxamide] belongs 5 to 20 nM; to `COc1c(N2CC[C@H](OC)C2=O)cc(C(=O)Nc2nnc(-n3nccc3C)s2)oc1=O` [Compound 151, 5-methoxy-4-[(3S)-3-methoxy-2-oxopyrrolidin-1-yl]-N-[5-(5-methylpyrazol-1-yl)-1,3,4-thiadiazol-2-yl]-6-oxopyran-2-carboxamide], 5 to 20 nM; to `COc1c(NC23CC(O)(C2)C3)cc(C(=O)Nc2nnc(-n3nccc3C)s2)oc1=O` [Compound 126, 4-((3-hydroxybicyclo[1.1.1]pentan-1-yl)amino)-3-methoxy-N-(5-(5-methyl-1H-pyrazol-1-yl)-1,3,4-thiadiazol-2-yl)-2-oxo-2H-pyran-6-carboxamide], 5 to 20 nM.
In the case of `COc1c(N[C@H]2CC[C@H]2OC)cc(C(=O)Nc2nnc(-c3c(Cl)ccn3C)s2)oc1=O` (single isomer, unassigned) [Compound 133*], the IC50 is 5 to 20 nM.
To `COc1c(N[C@@H](C)[C@@H](C)OC)cc(C(=O)Nc2nnc(-n3nccc3C)s2)oc1=O` [Compound 207, 3-methoxy-4-(((2S,3R)-3-methoxybutan-2-yl)amino)-N-(5-(5-methyl-1H-pyrazol-1-yl)-1,3,4-thiadiazol-2-yl)-2-oxo-2H-pyran-6-carboxamide] belongs 20 to 60 nM; to `COc1c(N[C@@H]2CCC[C@@H]2OC)cc(C(=O)Nc2nnc(-c3c(Cl)ccn3C)s2)oc1=O` (single isomer, unassigned) [48*], 5 to 20 nM.
To `COc1c(NC2CC3(COC3)C2)cc(C(=O)Nc2nnc(-n3nccc3C)s2)oc1=O` [Compound 50, 4-((2-oxaspiro[3.3]heptan-6-yl)amino)-3-methoxy-N-(5-(5-methyl-1H-pyrazol-1-yl)-1,3,4-thiadiazol-2-yl)-2-oxo-2H-pyran-6-carboxamide] belongs 60 to 200 nM.
The result for `COCCOc1c(N[C@@H](COC)c2ccccc2)cc(C(=O)Nc2nnc(-c3c(Cl)ccn3C)s2)oc1=O` [Compound 201, (R)—N-(5-(3-chloro-1-methyl-1H-pyrrol-2-yl)-1,3,4-thiadiazol-2-yl)-4-((2-methoxy-1-phenylethyl)amino)-3-(2-methoxyethoxy)-2-oxo-2H-pyran-6-carboxamide] reads less than 5 nM.
